In patent US20110178104A1, “Anti-Heparin Compounds” (POLYMEDIX INC., priority 2010, published 2011):
Several values for one entry are separate records, joined by “and”; a condition that tells them apart may be missing. Identical values can stand only once.

Legend:
enoxaparin = test: FXa amidolytic assay (Example 10), enoxaparin; details: read-out: Enox FXa EC50; enoxaparin 0.1 ug/ml; human antithrombin, bovine Factor Xa
Unfractionated heparin = test: aPTT clotting assay, UFH 0.4 U/mL in plasma (Example 10); type: biochemical; details: unfractionated heparin 0.4 U/mL in plasma; aPTT clotting
Experimental: aPTT clotting Assay: Unfractionated heparin was mixed with plasma at a final concentration of 0.4 U/mL (or concentration which increases aPTT time to between 120 and 300 seconds). […] The ACL Elite Hemostasis analyzer (Beckman Coulter™) was used to add aPTT reagent (HemosIL SynthASil) to supplemented plasma. Clotting was initiated by addition of CaCl2 and time to clot was recorded.

fondaparinux = test: FXa amidolytic assay (Example 10), fondaparinux; details: read-out: Fondap FXa EC50; fondaparinux 0.02 μg/mL; human antithrombin, bovine Factor Xa
tinzaparin = test: FXa amidolytic assay (Example 10), tinzaparin; details: read-out: Tinzap FXa EC50; tinzaparin 0.1 ug/ml; human antithrombin, bovine Factor Xa

Row | Structure (SMILES) | EC50 (enoxaparin) | EC50 (Unfractionated heparin) | EC50 (fondaparinux) | EC50 (tinzaparin)
1 | CNc1cccc(C(=O)N[C@@H](CCCCN)C(=O)Nc2ccc(OC)c(C(=O)N[C@@H](CCCCN)C(=O)Nc3ccc(OC)c(C(=O)N[C@@H](CCCCN)C(=O)Nc4ccc(OC)c(C(N)=O)c4)c3)c2)c1 [Compound 243] | 1150 nM | 2900 nM | 5910 nM | 752 nM
2 | COc1ccc(NC(=O)[C@H](CCCCN)NC(=O)c2cc(NC(=O)[C@H](CCCCN)NC(=O)c3cc(NC(=O)[C@H](CCCCN)NC(=O)c4cc(NC(=O)[C@@H](N)CCCCN)ccc4OC)ccc3OC)ccc2OC)cc1C(=O)NCC(=O)O [Compound 260] | 399 nM and 284 nM | 1660 nM and 1410 nM | 5080 nM and 3970 nM | 247 nM and 215 nM
3 | COc1ccc(NC(=O)[C@H](CCCCN)NC(=O)c2cc(NC(=O)[C@H](CCCCN)NC(=O)c3cc(NC(=O)[C@H](CCCNC(N)=O)NC(=O)c4cc(NC(=O)[C@@H](N)CCCCN)ccc4OC)ccc3OC)ccc2OC)cc1C(N)=O [Compound 257] | 205 nM | 1330 nM | 1450 nM | 130 nM
4 | COc1ccc(NC(=O)[C@H](CCCCN)NC(=O)c2cc(NC(=O)[C@H](CCCCN)NC(=O)c3cc(NC(=O)[C@H](CCCCN)NC(=O)c4cc(NC(=O)[C@H](CCCCN)NC(=O)COCC(=O)O)ccc4OC)ccc3OC)ccc2OC)cc1C(N)=O [Compound 345] | 233 nM | 2990 nM | 911 nM | 205 nM
5 | COc1ccc(NC(=O)[C@H](CCCCN)NC(=O)c2cc(NC(=O)[C@H](CCCCN)NC(=O)c3cc(NC(=O)[C@H](CCCCN)NC(=O)c4cc(NC(=O)[C@H](CCCCN)NC(=O)CC(=O)O)ccc4OC)ccc3OC)ccc2OC)cc1C(N)=O [Compound 290] | 318 nM | 2270 nM | 1880 nM | 212 nM
6 | COc1ccc(NC(=O)[C@H](CCCCN)NC(=O)c2cc(NC(=O)[C@H](CCCCN)NC(=O)c3cc(NC(=O)[C@H](CCCCN)NC(=O)c4cc(NC(=O)[C@@H](N)CCCCN)ccc4OC)ccc3OC)ccc2OC)cc1C(=O)N[C@@H](CCCNC(N)=O)C(=O)O [Compound 273] | 319 nM | 1550 nM | 3800 nM | 202 nM
7 | COc1ccc(NC(=O)[C@H](CCCCN)NC(=O)c2cc(NC(=O)[C@@H](N)CCCCN)ccc2OC)cc1C(=O)N[C@@H](CCCCN)C(=O)Nc1ccc(OC)c(C(=O)N[C@@H](CCCCN)C(=O)Nc2ccc(OC)c(C(=O)N[C@H](Cc3ccccc3)C(=O)O)c2)c1 [Compound 264] | 731 nM | 1380 nM | > 10000 nM | 365 nM
8 | COc1ccc(NC(=O)[C@H](CCCCN)NC(=O)c2cc(NC(=O)[C@H](CCCNC(N)=O)NC(=O)c3cc(NC(=O)[C@H](CCCCN)NC(=O)c4cc(NC(=O)[C@@H](N)CCCCN)ccc4OC)ccc3OC)ccc2OC)cc1C(N)=O [Compound 258] | 198 nM | 1520 nM | 1540 nM | 132 nM
9 | COc1ccc(NC(=O)[C@H](CCCNC(=N)N)NC(=O)c2cc(NC(=O)[C@H](CCCNC(=N)N)NC(=O)c3cc(NC(=O)[C@H](CCCNC(=N)N)NC(=O)c4cc(NC(C)=O)ccc4OC)ccc3OC)ccc2OC)cc1C(=O)N[C@@H](Cc1ccc(O)cc1)C(=O)O [Compound 301] | 276 nM | 6080 nM | 295 nM | 278 nM
10 | COC(=O)c1cc(NC(=O)[C@H](CCCCN)NC(=O)c2cc(NC(=O)[C@H](CCCCN)NC(=O)c3cc(NC(=O)[C@H](CCCCN)NC(=O)c4cc(NC(=O)[C@@H](N)CCCCN)ccc4OC)ccc3OC)ccc2OC)ccc1OC [Compound 249] | 466 nM | 1420 nM | 10600 nM | 215 nM
11 | COc1ccc(NC(=O)[C@@H](CCCNC(N)=O)NC(=O)c2cc(NC(=O)[C@@H](CCCNC(=N)N)NC(=O)c3cc(NC(=O)[C@@H](CCCNC(=N)N)NC(=O)c4cc(NC(=O)[C@H](N)CCCNC(=N)N)ccc4OC)ccc3OC)ccc2OC)cc1C(N)=O [Compound 255] | 114 nM | 1720 nM | 473 nM | 119 nM
12 | COc1ccc(NC(=O)[C@H](CCCCN)NC(=O)c2cc(NC(=O)[C@H](CCCCN)NC(=O)c3cc(NC(=O)[C@H](CCCCN)NC(=O)c4cc(NC(=O)[C@@H](N)CCCCN)ccc4OC)ccc3OC)ccc2OC)cc1C(=O)N[C@@H](CCC(=O)O)C(=O)O [Compound 276] | 625 nM | 2330 nM | 5180 nM | 363 nM

Results, then the compound that gave them:

Row | EC50 (enoxaparin) | EC50 (Unfractionated heparin) | EC50 (fondaparinux) | EC50 (tinzaparin) | Structure (SMILES)
13 | > 5000 nM | > 10000 nM | > 10000 nM | > 5000 nM | COc1cc(OC)c(C(=O)N[C@H]2CC[C@H](NC(=O)c3cc(C(=O)O)ncn3)CC2)cc1C(=O)NCCN [Compound 403]
14 | > 5000 nM | > 10000 nM | > 10000 nM | > 5000 nM | COc1cc(OC)c(C(=O)NCCCNC(=O)c2cc(C(=O)NCCCNC(=O)c3cc(C(=O)NCCCN)c(OC)cc3OC)c(OC)cc2OC)cc1C(=O)NCCCN [Compound 408]
15 | > 5000 nM | > 10000 nM | > 10000 nM | > 5000 nM | COc1cc(OC)c(C(=O)N[C@H]2CC[C@@H](NC(=O)c3cc(C(=O)N4CCC(CN)CC4)c(OCCCCCN)cc3OCCCCCN)CC2)cc1C(=O)N[C@H]1CC[C@@H](N=C(N(C)C)N(C)C)CC1 [Compound 424]
16 | > 5000 nM | > 10000 nM | > 10000 nM | > 5000 nM | COc1cc(OC)c(C(=O)N2CCC(CNC(=O)c3cc(C(=O)NCCN)c(OC)cc3OC)CC2)cc1C(=O)O [Compound 396]
17 | 407 nM | 1410 nM | 3050 nM | 261 nM | COc1ccc(NC(=O)[C@H](CCCCN)NC(=O)c2cc(NC(=O)[C@H](CCCCN)NC(=O)c3cc(NC(=O)[C@H](CCCCN)NC(=O)c4cc(NC(=O)[C@@H](N)CCC(=O)O)ccc4OC)ccc3OC)ccc2OC)cc1C(N)=O [Compound 318]
18 | 238 nM | 1200 nM | 159 nM | 220 nM | COc1cc(OC)c(C(=O)Nc2ccc(NC(=O)c3cc(C(=O)Nc4ccc(NC(=O)c5cc(C(=O)NCCN)c(OC)cc5OC)cc4)c(OC)cc3OC)cc2)cc1C(=O)NCCN [Compound 421]
19 | 125 nM | 687 nM | 197 nM | 113 nM | COc1cc(OC)c(C(=O)N[C@H]2CC[C@@H](NC(=O)c3cc(C(N)=O)c(OCCCCCN)cc3OCCCCCN)CC2)cc1C(=O)N[C@H]1CC[C@@H](NC(=O)c2cc(C(N)=O)c(OCCCCCN)cc2OCCCCCN)CC1 [Compound 412]
20 | > 5000 nM | > 10000 nM | > 10000 nM | > 5000 nM | COc1cc(OC)c(C(=O)N2CCC(NC(=O)c3cc(C(=O)NCCN)c(OC)cc3OC)CC2)cc1C(=O)O [Compound 394]
21 | 329 nM | 2040 nM | 1750 nM | 223 nM | COc1ccc(NC(=O)[C@H](CCCCN)NC(=O)c2cc(NC(=O)[C@H](CCC(=O)O)NC(=O)c3cc(NC(=O)[C@H](CCCCN)NC(=O)c4cc(NC(=O)[C@@H](N)CCCCN)ccc4OC)ccc3OC)ccc2OC)cc1C(N)=O [Compound 316]
22 | 281 nM | 1110 nM | > 10000 nM | > 5000 nM | COc1cc(OC)c(C(=O)N[C@H]2CC[C@H](NC(=O)c3cc(C(=O)NCCN(C)C)c(OCCCCCN)cc3OCCCCCN)CC2)cc1C(=O)NCCN(C)C [Compound 228]
